# Molecular target: T1, JAK3 (Homo sapiens, UniProt P52333)
# T1 sequence (P52333 1-1124): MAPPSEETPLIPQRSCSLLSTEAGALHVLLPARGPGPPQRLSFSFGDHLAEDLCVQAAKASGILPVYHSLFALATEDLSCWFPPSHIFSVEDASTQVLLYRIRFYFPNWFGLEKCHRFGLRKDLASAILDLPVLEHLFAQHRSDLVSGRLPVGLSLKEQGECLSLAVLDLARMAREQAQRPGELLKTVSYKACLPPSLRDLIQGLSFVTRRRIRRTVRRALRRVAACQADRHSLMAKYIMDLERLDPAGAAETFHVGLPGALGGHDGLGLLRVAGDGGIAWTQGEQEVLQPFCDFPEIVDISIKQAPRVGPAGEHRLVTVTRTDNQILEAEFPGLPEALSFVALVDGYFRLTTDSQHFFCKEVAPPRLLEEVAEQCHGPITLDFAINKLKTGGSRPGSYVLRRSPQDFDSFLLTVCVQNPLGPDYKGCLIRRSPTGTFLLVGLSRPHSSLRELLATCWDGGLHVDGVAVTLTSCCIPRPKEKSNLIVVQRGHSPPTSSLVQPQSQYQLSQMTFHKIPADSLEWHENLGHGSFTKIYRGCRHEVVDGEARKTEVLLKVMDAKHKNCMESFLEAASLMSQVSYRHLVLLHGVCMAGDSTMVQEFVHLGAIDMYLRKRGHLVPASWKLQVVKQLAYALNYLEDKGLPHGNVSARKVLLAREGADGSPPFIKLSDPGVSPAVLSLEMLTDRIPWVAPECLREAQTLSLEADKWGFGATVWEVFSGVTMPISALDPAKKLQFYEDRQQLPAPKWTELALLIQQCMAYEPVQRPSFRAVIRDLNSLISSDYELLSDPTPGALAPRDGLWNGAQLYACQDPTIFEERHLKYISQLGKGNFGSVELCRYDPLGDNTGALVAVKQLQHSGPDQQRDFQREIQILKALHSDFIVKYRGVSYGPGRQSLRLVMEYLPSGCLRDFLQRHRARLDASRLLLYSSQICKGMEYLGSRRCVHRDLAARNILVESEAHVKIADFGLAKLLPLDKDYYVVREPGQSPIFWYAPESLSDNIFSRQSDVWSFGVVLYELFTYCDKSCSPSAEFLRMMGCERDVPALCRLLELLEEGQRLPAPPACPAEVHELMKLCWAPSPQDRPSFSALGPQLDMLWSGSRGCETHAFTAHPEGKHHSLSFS
# Assay: JAK3 inhibition assay
# Format: biochemical
# Conditions: 2 μM ATP, Poly (Glu, Ala, Tyr) 6:3:1 coated plates, 60 minutes at 30° C.
# Method: Compound inhibition of JAK was assayed by the method described by G. R. Brown, et al, Bioorg. Med. Chem. Lett. 2000, vol. 10, pp 575-579 in the following manner. Into Maxisorb plates, previously coated at 4° C. with Poly (Glu, Ala, Tyr) 6:3:1 then washed with phosphate buffered saline 0.05% and Tween (PBST), was added 2 μM ATP, 5 mM MgCl2, and a solution of compound in DMSO. The reaction was started with JAK enzyme and the plates incubated for 60 minutes at 30° C. The plates were then washed with PBST, 100 μL HRP-Conjugated 4G10 antibody was added, and the plate incubated for 90 minutes at 30° C. The plate was again washed with PBST, 100 μL TMB solution is added, and the plates were incubated for another 30 minutes at 30° C. Sulfuric acid (100 μL of 1M) was added to stop the reaction and the plate is read at 450 nm, and Ki values were determined.
row,Structure (SMILES),Ki [nM]
1,O=C(NCC1CCCO1)c1cccc(-c2ccnc(Nc3ccccc3)n2)c1 (centres unmarked) [IV-C(i)-15],≤ 1000
2,Nc1cccc(Nc2nccc(-c3ccc(NC(=O)CN4CCOCC4)cc3)n2)c1 [IV-B(i)-5],≤ 1000
3,O=C(NCc1ccccc1)c1ccc(-c2ccnc(Nc3ccccc3)n2)cc1 [IV-D(i)-2],≤ 1000
4,NS(=O)(=O)c1cccc(Nc2nccc(-c3cccc(NC(=O)c4ccco4)c3)n2)c1 [IV-A(i)-1],≤ 1000
5,Nc1cccc(Nc2nccc(-c3cccc(NC(=O)c4ccccn4)c3)n2)c1 [IV-A(i)-5],≤ 1000
6,Nc1cccc(Nc2nccc(-c3ccc(NC(=O)CN4CCC(O)CC4)cc3)n2)c1 [IV-B(i)-8],≤ 1000
7,Nc1cccc(Nc2nccc(-c3ccc(NC(=O)CN4CCC(CO)CC4)cc3)n2)c1 [IV-B(i)-7],≤ 1000
8,O=C(Nc1cccc(-c2ccnc(Nc3cccc(O)c3)n2)c1)c1ccco1 [IV-A(i)-4],≤ 1000
9,Nc1cccc(Nc2nccc(-c3ccc(NC(=O)c4ccco4)cc3)n2)c1 [IV-B(i)-4],≤ 1000
10,COc1cccc(Nc2nccc(-c3cccc(N(C)C(=O)c4ccco4)c3)n2)c1 [IV-A(i)-2],≤ 1000
11,Nc1cccc(Nc2nccc(-c3ccc(NC(=O)COc4ccccc4)cc3)n2)c1 [IV-B(i)-3],≤ 1000
12,Nc1cccc(Nc2nccc(-c3ccc(NC(=O)CN4CCCC(CO)C4)cc3)n2)c1 (centres unmarked) [IV-B(i)-6],≤ 1000
13,NS(=O)(=O)c1cccc(Nc2nccc(-c3ccc(NC(=O)COc4ccccc4)cc3)n2)c1 [IV-B(i)-1],≤ 1000
14,Nc1cccc(Nc2nccc(-c3cccc(NC(=O)c4cccs4)c3)n2)c1 [IV-A(i)-6],≤ 1000
15,Nc1cccc(Nc2nccc(-c3ccc(NC(=O)CN4CCCC4CO)cc3)n2)c1 (centres unmarked) [IV-B(i)-9],≤ 1000
16,O=C(Nc1ccc(-c2ccnc(Nc3cccc(O)c3)n2)cc1)c1cccs1 [IV-B(i)-10],≤ 1000
17,Nc1cccc(Nc2nccc(-c3ccc(NC(=O)c4cccs4)cc3)n2)c1 [IV-B(i)-2],≤ 1000
18,O=C(COc1ccccc1)Nc1ccc(-c2ccnc(Nc3cccc(O)c3)n2)cc1 [IV-B(i)-11],≤ 1000

# Molecular target: JNK3 (Homo sapiens, UniProt P53779)
# Sequence (P53779 whole entry): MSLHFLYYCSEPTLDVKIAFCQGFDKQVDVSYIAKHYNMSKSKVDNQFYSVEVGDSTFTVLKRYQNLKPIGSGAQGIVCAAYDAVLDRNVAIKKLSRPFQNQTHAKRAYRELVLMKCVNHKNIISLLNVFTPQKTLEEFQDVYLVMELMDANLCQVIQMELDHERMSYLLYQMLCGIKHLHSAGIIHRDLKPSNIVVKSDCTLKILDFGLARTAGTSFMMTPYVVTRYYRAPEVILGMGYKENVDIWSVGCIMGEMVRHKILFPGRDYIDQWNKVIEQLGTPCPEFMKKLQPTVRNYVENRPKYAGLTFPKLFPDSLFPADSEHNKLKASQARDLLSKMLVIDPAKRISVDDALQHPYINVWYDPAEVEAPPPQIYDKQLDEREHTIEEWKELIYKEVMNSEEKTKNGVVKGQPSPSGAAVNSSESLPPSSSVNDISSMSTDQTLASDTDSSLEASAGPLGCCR
# Assay: JNK3 inhibition assay (spectrophotometric coupled-enzyme assay)
# Format: biochemical
# Conditions: 10 nM activated JNK3, 10 μM ATP, 200 μM EGF receptor peptide, 30° C.
# Method: Compounds were assayed for the inhibition of JNK3 by a spectrophotometric coupled-enzyme assay. In this assay, a fixed concentration of activated JNK3 (10 nM) was incubated with various concentrations of a potential inhibitor dissolved in DMSO for 10 minutes at 30° C. in a buffer containing 0.1 M HEPES buffer, pH 7.5, containing 10 mM MgCl2, 2.5 mM phosphoenolpyruvate, 200 μM NADH, 150 μg/mL pyruvate kinase, 50 μg/mL lactate dehydrogenase, and 200 μM EGF receptor peptide. The EGF receptor is a phosphoryl acceptor in the JNK3-catalyzed kinase reaction. The reaction was initiated by the addition of 10 μM ATP and the assay plate is inserted into the spectrophotometer's assay plate compartment that was maintained at 30° C. The decrease of absorbance at 340 nm was monitored as a function of time. The rate data as a function of inhibitor concentration was fitted to competitive inhibition kinetic model to determine the Ki.
row,Structure (SMILES),Ki [nM]
1,Nc1cccc(Nc2nccc(-c3ccc(NC(=O)c4cccs4)cc3)n2)c1 [IV-B(i)-2],≤ 1000
2,O=C(COc1ccccc1)Nc1ccc(-c2ccnc(Nc3cccc(O)c3)n2)cc1 [IV-B(i)-11],≤ 1000

# Molecular target: CDK-2/Cyclin A (Homo sapiens, UniProt P24941)
# Assay: CDK2 inhibition assay (coupled enzyme assay)
# Format: biochemical
# Conditions: 100 μM ATP, 100 μM peptide, 25 nM CDK-2/Cyclin A, 30° C.
# Method: Compounds were screened for their ability to inhibit CDK-2/Cyclin A using a standard coupled enzyme assay (Fox et al (1998) Protein Sci 7, 2249). Reactions were carried out in 100 mM HEPES pH 7.5, 10 mM MgCl2, 25 mM NaCl, 1 mM DTT and 1.5% DMSO. Final substrate concentrations in the assay were 100 μM ATP (Sigma chemicals) and 100 μM peptide (American Peptide, Sunnyvale, Calif.). Assays were carried out at 30° C. and 25 nM CDK-2/Cyclin A. Final concentrations of the components of the coupled enzyme system were 2.5 mM phosphoenolpyruvate, 350 μM NADH, 30 μg/ml pyruvate kinase and 10 μg/ml lactate dehydrogenase.
# An assay stock buffer solution was prepared containing all of the reagents listed above, with the exception of CDK-2/Cyclin A, DTT and the test compound of interest. 56 μl of the test reaction was placed in a 384 well plate followed by addition of 1 μl of 2 mM DMSO stock containing the test compound (final compound concentration 30 μM). The plate was preincubated for ˜10 minutes at 30° C. and the reaction initiated by addition of 10 μl of enzyme (final concentration 25 nM). Rates of reaction were obtained using a BioRad Ultramark plate reader (Hercules, Calif.) over a 5 minute read time at 30° C. and Ki values were determined.
row,Structure (SMILES),Ki [nM]
1,Cc1ccc(-c2ccnc(Nc3ccccc3)n2)cc1C(=O)NCc1ccccc1 [IV-C(i)-4],≤ 1000
2,Cc1ccc(-c2ccnc(Nc3ccccc3)n2)cc1C(=O)NC1CCCCC1 [IV-C(i)-3],≤ 1000
3,Cc1ccc(-c2ccnc(Nc3ccccc3)n2)cc1C(=O)Nc1ccccc1 [IV-C(i)-2],≤ 1000
4,O=C(NC1CCCCC1)c1ccc(-c2ccnc(Nc3ccccc3)n2)cc1 [IV-D(i)-4],≤ 1000
5,Nc1cccc(Nc2nccc(-c3ccc(NC(=O)c4cccs4)cc3)n2)c1 [IV-B(i)-2],≤ 1000
6,O=C(COc1ccccc1)Nc1ccc(-c2ccnc(Nc3cccc(O)c3)n2)cc1 [IV-B(i)-11],≤ 1000

# From patent US7312227B2, “Compositions useful as inhibitors of JAK and other protein kinases” (Vertex Pharmaceuticals Incorporated, priority 2002, dated 2007)
